Measured values published in patent publication US10966996B2, “Glechoma longitube extract, preparation method for same, and use thereof in sugar reduction, weight loss, and lipid reduction” (SHANGHAI INSTITUTE OF MATERIA MEDICA CHINESE ACADEMY OF …, priority 2014, dated 2021).

Tests used:
Format in all cases: biochemical
[1] = target: T1, DDP4 enzyme (Homo sapiens, UniProt P27487); experiment: in vitro inhibiting activity against DDP4 enzyme (Caco-2 cell lysis solution, H-Gly-Pro-AMC substrate); details: for inhibition rate against DDP4: 100 μM; for inhibition at 100 µM: read-out: inhibition rate against DDP4
T1 construct: cell lysis solution of human colon cancer cell line Caco-2 as DDP4 enzyme source; endogenous in cells; host or cells: Caco-2 (human colon cancer cell line) lysate
T1 sequence (P27487 whole entry): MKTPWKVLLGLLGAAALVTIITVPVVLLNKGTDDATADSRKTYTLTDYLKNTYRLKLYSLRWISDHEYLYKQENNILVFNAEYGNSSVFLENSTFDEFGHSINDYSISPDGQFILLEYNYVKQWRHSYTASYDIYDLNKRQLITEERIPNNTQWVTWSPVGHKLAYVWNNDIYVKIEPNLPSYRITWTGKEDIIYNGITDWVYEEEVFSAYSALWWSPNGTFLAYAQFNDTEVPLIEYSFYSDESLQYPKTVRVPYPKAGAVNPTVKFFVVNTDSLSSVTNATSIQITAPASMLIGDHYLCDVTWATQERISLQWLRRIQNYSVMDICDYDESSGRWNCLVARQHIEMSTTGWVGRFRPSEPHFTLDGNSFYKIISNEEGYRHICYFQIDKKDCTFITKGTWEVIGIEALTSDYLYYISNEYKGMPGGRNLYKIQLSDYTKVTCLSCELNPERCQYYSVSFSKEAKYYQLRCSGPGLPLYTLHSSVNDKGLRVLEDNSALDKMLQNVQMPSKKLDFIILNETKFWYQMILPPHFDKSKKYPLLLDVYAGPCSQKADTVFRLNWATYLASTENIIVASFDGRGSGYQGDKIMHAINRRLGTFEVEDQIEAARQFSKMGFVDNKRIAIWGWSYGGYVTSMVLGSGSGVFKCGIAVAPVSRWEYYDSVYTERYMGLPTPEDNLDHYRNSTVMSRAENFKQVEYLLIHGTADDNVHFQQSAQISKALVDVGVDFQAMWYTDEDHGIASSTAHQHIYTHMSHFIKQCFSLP
Procedure: Experimental method: (1) determination of inhibiting activity of Compound I and Compound II against DDP4 enzyme in vitro: cell lysis solution of human colon cancer cell line Caco-2 as DDP4 enzyme source (Thomas, L., et al, 2008, JPET). In a drug screening system of 96-well plate, 100 μL/well, the final concentration of H-Gly-Pro-AMC substrate (AnaSpec) was 244 μM, in which different concentrations of test compounds were added for incubation at 37° C. for 30 mins Fluorescence signals were detected at excitation wavelength 380 nm/emission wavelengths 460 nm Inhibition rates (%) on the enzyme of test samples against DDP4 were calculated according to fluorescence absorption value obtained by detection. The inhibition rate (%) is calculated according to the following formula: Inhibition rate (%)=(RFU blank−RFU compound)/(RFU blank−RFU negative control)*100%
RFU compound, RFU blank, and RFU negative control represent the difference of fluorescence values at 30 mins and at 0 min from a compound well, a blank well, and a negative control well free of enzyme; (2) effect of Compound I and Compound II for acute glucose tolerance in mice: the OGTT experimental method was the same to Example 5, the mice were divided into control group; calibration group; Compound I lower dose group (100 mg/kg); Compound I higher dose group (200 mg/kg); Compound II lower dose group (100 mg/kg); Compound II higher dose group (200 mg/kg); and positive drug group (Sitagliptin 10 mg/kg, Merck Company, USA).

[2] = target: T2, glucose oxidase (GOX) (Homo sapiens, UniProt Q9UJM8); experiment: inhibitory activity against glucose oxidase (GOX), enzyme coupling method with glycolic acid substrate; set-up: Vmax: unit not given here; details: for inhibition at 0.1 µM / inhibition at 0.3 µM / inhibition at 1 µM / inhibition at 3 µM / inhibition at 10 µM / inhibition at 30 µM / inhibition at 100 µM: read-out: Inhibition rate; for IC50: fitted by Graphpad Prism 5.0, tested 100 μM-0.1 μM
T2 sequence (Q9UJM8 1-370): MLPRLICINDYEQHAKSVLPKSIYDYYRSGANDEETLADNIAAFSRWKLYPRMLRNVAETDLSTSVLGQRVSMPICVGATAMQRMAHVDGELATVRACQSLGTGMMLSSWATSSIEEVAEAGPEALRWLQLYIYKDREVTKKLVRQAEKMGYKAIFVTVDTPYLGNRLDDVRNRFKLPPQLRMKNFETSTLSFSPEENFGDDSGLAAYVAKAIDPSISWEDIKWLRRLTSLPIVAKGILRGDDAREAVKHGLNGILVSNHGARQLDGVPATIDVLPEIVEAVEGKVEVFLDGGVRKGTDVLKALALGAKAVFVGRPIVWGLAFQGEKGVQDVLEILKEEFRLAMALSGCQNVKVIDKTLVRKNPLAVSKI
Procedure: Mechanism of experiment: enzyme coupling method utilizes peroxidase (POD) and substrates thereof to react with generated H2O2 to produce colored products so as to determine the catalytic reaction rate of glucose oxidase. POD catalyzes H2O2 to react with phenol and 4-amino antipyrine to produce brown-red quinone substances.
Experimental method: reagents were added according to the table below; the reaction was immediately initiated upon the final addition of substrate glycolic acid; the kinetic course of the reaction was detected by microplate reader; the enzyme activity was represented by Vmax, maximum reaction velocity.
The measurement results were fitted by Graphpad Prism 5.0 to calculate IC50 values.

[3] = target: T3, porcine pancrelipase (Sus scrofa, UniProt P00591); experiment: inhibitory activity against pancrelipase (p-Nitrophenyl acetate substrate); details: read-out: Inhibition rate % (50 μM) against pancrelipase
T3 construct: purchased Sigma
T3 sequence (P00591 1-450): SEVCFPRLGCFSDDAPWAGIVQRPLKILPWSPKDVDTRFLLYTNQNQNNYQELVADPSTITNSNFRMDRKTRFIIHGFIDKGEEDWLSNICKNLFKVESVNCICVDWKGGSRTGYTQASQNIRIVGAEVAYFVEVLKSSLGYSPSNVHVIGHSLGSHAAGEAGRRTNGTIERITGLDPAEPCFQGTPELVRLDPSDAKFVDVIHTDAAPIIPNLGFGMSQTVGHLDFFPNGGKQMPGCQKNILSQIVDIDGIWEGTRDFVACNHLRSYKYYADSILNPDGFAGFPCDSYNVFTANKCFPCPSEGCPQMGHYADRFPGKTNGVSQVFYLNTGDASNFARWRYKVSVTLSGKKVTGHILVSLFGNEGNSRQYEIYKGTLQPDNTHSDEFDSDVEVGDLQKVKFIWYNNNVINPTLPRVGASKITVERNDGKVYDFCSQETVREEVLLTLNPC
Excerpt: OD compound, OD blank, and OD negative control represented the fluorescence values from a compound well, a blank well, and a negative control well free of DGAT1 enzyme, and the concentrations of the compounds when the enzyme activity inhibition rate (%) reached 50% were set as IC50 value; (3) inhibitory activity of the individual compounds separated from the extract of Glechoma longituba (Nakai) Kupr., LQC-H-1, against pancrelipase: substrate p-Nitrophenyl acetate (Sigma, USA) was formulated to 1.35 mM with phosphate buffer (25 mM, pH 6.8); porcine pancrelipase (Sigma) was formulated to 10 mg/ml with phosphate buffer; brominated eneyne compounds were formulated to solutions of different concentrations with phosphate buffer. Then, 50 μl of 1.35 mM p-Nitrophenyl acetate (Sigma, USA) solution and 10 μl of test compounds of different concentrations were sequentially added into a 96-well plate and pre-incubated at 37° C. for 5 mins. Finally, 50 μl of 10 mg/ml pancrelipase (EC 3.1.1.3, Sigma, USA) was added and mixed. The reaction proceeded at 37° C. for further 20 mins Absorbance of each well was measured at 492 nm. The inhibition rates (%) of the test samples against pancrelipase were calculated based on the absorbance at 492 nm. The concentrations of the compounds when then enzyme activity inhibition rate (%) reached 50% was set as IC50 value. The inhibition rate (%) could be calculated according to the following formula: Inhibition rate (%)=[(A−B)−(C−D)]/(A−B)×100
In the above formula, A, B, C, and D represented the absorbance of a blank well after the reaction, the absorbance of a blank well prior to the reaction, the absorbance of a sample well after the reaction, and the absorbance of a sample well prior to the reaction.

## O=C(O)C1O[C@@H](OC2C(O)[C@H](O)C(C(=O)O)O[C@H]2Oc2cc(O)c3c(=O)cc(-c4ccc(O)c(O)c4)oc3c2)C(O)C(O)[C@@H]1O (stereo partly drawn) [Compound I, luteolin-7-O-[β-glucuronosyl(1→2)β-glucuronic acid]]
[1]
  inhibition rate against DDP4: 40.8%
  inhibition at 100 µM: 40.8 ± 3.26%
[2]; 0.1 μM
  Vmax: 35.13 ± 0.22
  inhibition at 0.1 µM: 1.54 ± 0.62%
[2]; 0.3 μM
  Vmax: 35.47 ± 0.98
  inhibition at 0.3 µM: 0.6 ± 2.74%
[2]; 1 μM
  Vmax: 35.36 ± 0.65
  inhibition at 1 µM: 0.9 ± 1.82%
[2]; 3 μM
  Vmax: 35.39 ± 0.63
  inhibition at 3 µM: 0.83 ± 1.77%
[2]; 10 μM
  Vmax: 35.08 ± 0.21
  inhibition at 10 µM: 1.69 ± 0.58%
[2]; 30 μM
  Vmax: 34.04 ± 0.65
  inhibition at 30 µM: 4.6 ± 1.82%
[2]; 100 μM
  Vmax: 29.34 ± 0.10
  inhibition at 100 µM: 17.8 ± 0.29%
[2]
  IC50: 500 µM
[3]
  inhibition at 50 µM: 41.9%

## O=C(O)C1O[C@@H](OC2C(O)[C@H](O)C(C(=O)O)O[C@H]2Oc2cc(O)c3c(=O)cc(-c4ccc(O)cc4)oc3c2)C(O)C(O)[C@@H]1O (stereo partly drawn) [Compound II, apigenin-7-O-[β-glucuronosyl(1→2)β-glucuronic acid]]
[1]
  inhibition rate against DDP4: 34.1%
  inhibition at 100 µM: 34.1 ± 3.91%
[2]; 0.1 μM
  Vmax: 36.05 ± 0.85
  inhibition at 0.1 µM: -1.04 ± 2.39%
[2]; 0.3 μM
  Vmax: 36.35 ± 0.84
  inhibition at 0.3 µM: -1.88 ± 2.35%
[2]; 1 μM
  Vmax: 35.42 ± 0.43
  inhibition at 1 µM: 0.74 ± 1.19%
[2]; 3 μM
  Vmax: 35.85 ± 1.03
  inhibition at 3 µM: -0.48 ± 2.9%
[2]; 10 μM
  Vmax: 35.63 ± 1.00
  inhibition at 10 µM: 0.15 ± 2.81%
[2]; 30 μM
  Vmax: 33.88 ± 0.98
  inhibition at 30 µM: 5.05 ± 2.76%
[2]; 100 μM
  Vmax: 29.13 ± 0.80
  inhibition at 100 µM: 18.4 ± 2.23%
[2]
  IC50: 400 µM
[3]
  inhibition at 50 µM: 41.6%
